“Also recorded” adds a separate entry of the source. Where two headings read alike, the source gives them in different places.
Key:
wild type AfArsR = type: binding, Acidithiobacillus ferrooxidans
AfArsR C102S mutant = type: binding, Acidithiobacillus ferrooxidans
[1] = tested on: AfarsR-gfp biosensor (E. coli strain AW3110 bearing pBADarsR and pACYC184-parsO-gfp); type: cell-based
[2] = tested on: C102S mutant biosensor (E. coli strain AW3110); type: cell-based
[3] = tested on: C102S biosensor co-cultured with Burkholderia sp. MR1; type: cell-based, E. coli / Burkholderia sp. MR1
[4] = target: Acidithiobacillus ferrooxidans AfArsR repressor, wild type (Acidithiobacillus ferrooxidans, UniProt B7J952); type: biochemical; details: pH 7.5
Chain of Acidithiobacillus ferrooxidans AfArsR repressor, wild type (B7J952 1-118): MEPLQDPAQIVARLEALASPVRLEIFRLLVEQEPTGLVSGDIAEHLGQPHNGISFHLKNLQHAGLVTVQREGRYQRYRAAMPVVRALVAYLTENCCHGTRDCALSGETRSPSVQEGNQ

[5] = target: T1, Acidithiobacillus ferrooxidans AfArsR variant C102S (Cys102 to serine) (Acidithiobacillus ferrooxidans, UniProt B7J952, C102S); type: biochemical
T1 sequence (B7J952 1-118 C102S): as the sequence (B7J952 1-118) above, with C102S counted along it

[6] = tested on: Acidithiobacillus ferrooxidans AfArsR, wild type (pBADarsR / pACYC184-parsO-gfp biosensor in E. coli AW3110); type: cell-based
[7] = tested on: Acidithiobacillus ferrooxidans AfArsR variant C102S (Cys102 eliminated by mutation; pBADarsR / parsO-gfp biosensor in E. coli AW3110); type: cell-based
[8] = tested on: E. coli AW3110 biosensor cells
[9] = target: T1, Acidithiobacillus ferrooxidans AfArsR variant C102S (Cys102 to serine); details: previously observed; cited from earlier work
[10] = read-out: apparent half maximal concentration required for induction

## arsenite [As(III)]
Wild type AfArsR; read-out: half-maximal concentration for decrease of anisotropy
  EC50: ~10 µM
AfArsR C102S mutant
  binding by purified AfArsR C102S mutant: lost its binding ability
  response of C102S AfArsR (anisotropy): little response
[1]
  biosensor response: practically no response
  biosensor response (gfp derepression): induced
  concentration around which the response is linear: ~10 ppb
  gfp expression upon addition of arsenite: derepressed gfp expression; also recorded: derepressing gfp expression
  induction of gfp expression: induced gfp expression
[1]; [10]
  EC50: ~10 µM
[2]
  biosensor response (gfp derepression): did not respond
  response of Cys102-lacking biosensor: no response
  response of mutant biosensor: no response
  response to addition of arsenite: not responsive

## O=[N+]([O-])c1cc([As](=O)(O)O)ccc1O [Rox(V), 3-nitro-4-hydroxybenzenearsonic acid]
[1]
  biosensor response (gfp derepression): unresponsive
[2]
  biosensor response (gfp derepression): unresponsive
[3]
  response of biosensor co-cultured with Burkholderia: didn't respond; also recorded: didn't show fluorescent

## arsenate [As(V)]
Wild type AfArsR
  effect on anisotropy of the AfArsR-DNA complex: no effect

## O[As](O)O [As(III), arsenite]
[4]; read-out: concentration required to decrease anisotropy of AfArsR-DNA complex (half-maximal)
  EC50: ~10 µM
[4]; read-out: half-maximal concentration decreasing anisotropy of AfArsR-DNA complex
  EC50: ~10 µM
[5]
  binding / recognition by C102S: lack of binding; also recorded: no longer recognizes; also recorded: lost its binding ability
  response (anisotropy): little response
[6]
  concentrations sensed by the original biosensor: micromolar concentrations
  induction / derepression of gfp expression: derepressed gfp expression; also recorded: dissociated AfArsR from pars, derepressing gfp expression; also recorded: induced gfp expression
  linear response around concentration: ~10 ppb
  response of the biosensor: practically no response
[7]
  induction / derepression of gfp expression: not responsive; also recorded: did not respond
  response to As(III): no response
[8]
  decrease in cellular fluorescence and growth: ≥ 40 pM
[9]
  reduction of affinity by substitution of Cys102 with serine: nearly an order of magnitude

## C[As](O)O [MAs(III), methylarsenite]
[5]
  binding / recognition by C102S: still senses; also recorded: same binding affinity
  response (anisotropy), concentration range: sub-micromolar range
  response to MAs(III), Rox(III) and PhAs(III) relative to wild type: slightly higher than the wild type
[6]
  induction / derepression of gfp expression: proportional to the concentration of the inducer; also recorded: induced gfp expression
[6]; [10]
  EC50: ~3 µM
[7]
  induction / derepression of gfp expression: proportional to the concentration of the inducer; also recorded: high levels of fluorescence
[7]; read-out: apparent half maximal concentration for induction
  EC50: ~3 µM
[8]
  toxic at concentrations in excess of: > 10^−5 M

## Sb(III) [listing 1 of 2 here]
[1]
  induction of gfp expression: induced gfp expression

## Sb(III) [listing 2 of 2 here]
[6]
  induction / derepression of gfp expression: induced gfp expression

## O=[As](O)(O)c1ccccc1 [PAA, phenylarsonic acid]
[3]
  response of biosensor co-cultured with Burkholderia: didn't respond
